The values that follow come from publication PMC5986872, “Schaftoside Interacts With NlCDK1 Protein: A Mechanism of Rice Resistance to Brown Planthopper, Nilaparvata lugens” (Frontiers in Plant Science, 2018).

The target in this assay is T1, NlCDK1 (Nilaparvata lugens, UniProt A0A1W5R2Z8).
T1 construct: CDS cloned BamHI/HindIII in pET32a
Kind of assay: intrinsic fluorescence quenching titration, double-log plot. Type of assay: binding. To be noted: PBS; pH 7.4; 0.24 × 10^-6 mol/L protein; excitation 281 nm, emission 335 nm.

T1 sequence (A0A1W5R2Z8 1-302): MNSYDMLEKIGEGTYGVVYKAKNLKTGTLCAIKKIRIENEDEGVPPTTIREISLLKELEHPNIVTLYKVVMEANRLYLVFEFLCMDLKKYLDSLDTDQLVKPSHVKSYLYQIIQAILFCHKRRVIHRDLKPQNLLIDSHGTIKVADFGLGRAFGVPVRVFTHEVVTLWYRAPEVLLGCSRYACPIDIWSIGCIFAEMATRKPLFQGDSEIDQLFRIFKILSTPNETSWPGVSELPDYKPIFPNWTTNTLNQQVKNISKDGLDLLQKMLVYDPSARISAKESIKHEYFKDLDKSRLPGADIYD

Consider `O=c1cc(-c2ccc(O)cc2)oc2c([C@@H]3OC[C@H](O)[C@H](O)[C@H]3O)c(O)c([C@@H]3O[C@H](CO)[C@@H](O)[C@H](O)[C@H]3O)c(O)c12` [schaftoside, 6-C-beta-D-Glucosyl-8-C-alpha-L-arabinosylapigenin], for which the “KA (apparent association constant)” value is given as 6.436 × 10^3.
